Structures are written as SMILES. In brackets after ≈: the same amount, converted by molar mass.

The source of these data is ChEMBL document CHEMBL4715849, “Recent Progress in the Discovery of Antifungal Agents Targeting the Cell Wall” (J Med Chem, 2020).

The test system of data set [1] is Candida albicans. Put plainly: Antifungal activity against Candida albicans ATCC 10231 incubated for 48 to 72 hrs by broth microdilution method. The format is functional. To be noted: time 48-72 hrs.
Data set [2] has as its system Meyerozyma guilliermondii. Put plainly: Antifungal activity against Candida guilliermondii incubated for 48 to 72 hrs by broth microdilution method. It counts as functional. To be noted: time 48-72 hrs.
In the next data set the test system is Pichia kudriavzevii. Kind of data set: Antifungal activity against Candida krusei incubated for 48 to 72 hrs by broth microdilution method. It counts as functional. The following applies: time 48-72 hrs.
Data set [3] concerns Candida albicans. Put plainly: Antifungal activity against Candida albicans ATCC 44373 incubated for 48 to 72 hrs by broth microdilution method. To be noted: time 48-72 hrs. It counts as functional.
The test system of data set [4] is Candida albicans. Put plainly: Antifungal activity against Candida albicans ATCC 38248 incubated for 48 to 72 hrs by broth microdilution method. It counts as functional. The following applies: time 48-72 hrs.
Another data set has as its target Chitin synthase 2 (Candida albicans, UniProt P30572). Put plainly: Inhibition of Chitin synthase 2 in Candida albicans (chs3del::hisG/chs3del::hisG) microsomes using UDP-[U14C]-GlcNac as substrate. On the set-up: species or system Microsome.
The target of a further data set is Chitin synthase 1 (Candida albicans, UniProt P23316). Put plainly: Inhibition of Chitin synthase 1 in Candida albicans (chs3del::hisG/chs3del::hisG) microsomes using UDP-[U14C]-GlcNac as substrate. Set-up: species or system Microsome.
Sequence of Chitin synthase 1 (P23316 whole entry): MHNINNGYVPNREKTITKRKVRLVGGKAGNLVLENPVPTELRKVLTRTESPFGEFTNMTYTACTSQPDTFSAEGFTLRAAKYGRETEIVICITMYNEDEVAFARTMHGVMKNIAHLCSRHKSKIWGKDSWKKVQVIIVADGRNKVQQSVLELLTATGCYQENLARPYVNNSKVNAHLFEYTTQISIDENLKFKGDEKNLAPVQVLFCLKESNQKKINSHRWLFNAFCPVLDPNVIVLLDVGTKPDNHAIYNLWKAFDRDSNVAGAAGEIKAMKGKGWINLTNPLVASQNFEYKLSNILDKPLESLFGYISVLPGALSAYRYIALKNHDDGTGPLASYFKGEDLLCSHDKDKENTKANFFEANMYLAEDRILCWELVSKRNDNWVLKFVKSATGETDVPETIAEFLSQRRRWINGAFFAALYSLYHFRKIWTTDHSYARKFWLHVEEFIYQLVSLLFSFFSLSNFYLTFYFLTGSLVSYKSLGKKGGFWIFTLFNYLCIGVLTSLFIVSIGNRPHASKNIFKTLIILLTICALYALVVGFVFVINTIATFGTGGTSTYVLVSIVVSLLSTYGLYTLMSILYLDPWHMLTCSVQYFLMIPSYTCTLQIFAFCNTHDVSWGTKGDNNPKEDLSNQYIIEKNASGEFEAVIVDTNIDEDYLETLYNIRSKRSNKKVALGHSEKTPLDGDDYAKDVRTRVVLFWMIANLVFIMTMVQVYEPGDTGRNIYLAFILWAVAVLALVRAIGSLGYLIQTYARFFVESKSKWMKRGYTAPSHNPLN
In data set [5] the test system is Candida albicans. Kind of data set: Antifungal activity against Candida albicans ATCC 200955 incubated for 48 to 72 hrs by broth microdilution method. The format is functional. To be noted: time 48-72 hrs.
Data set [6] can be described thus: Toxicity in iv dosed mouse. It counts as organism-based. To be noted: in vivo.
In data set [7] the test system is Candida albicans. Kind of data set: Antifungal activity against Candida albicans AMB-25 incubated for 48 hrs by serial two-fold dilution method. It counts as functional.
Data set [8] can be described thus: Inhibition of Candida albicans AMB-25 glucosamine-6-phosphate synthase using glutamine as substrate incubated for 30 mins.
Data set [9] in a line: Competitive inhibition of Candida albicans AMB-25 glucosamine synthetase using glutamine as substrate incubated for 30 mins by Lineweaver-Burk plot based Dixon plot analysis.
Data set [10] has as its system Trichophyton mentagrophytes. Put plainly: Antifungal activity against Trichophyton mentagrophytes D155 incubated for 40 hrs by serial agar dilution method. The format is functional.
Data set [11] has as its system Candida albicans. Put plainly: Antifungal activity against Candida albicans A9540 incubated for 40 hrs by serial agar dilution method. It counts as functional.
Data set [12] deals with Aspergillus fumigatus. Kind of data set: Antifungal activity against Aspergillus fumigatus IAM2034 incubated for 40 hrs by serial agar dilution method. The format is functional.
Data set [13] relates to Cryptococcus neoformans. Kind of data set: Antifungal activity against Cryptococcus neoformans D49 incubated for 40 hrs by serial agar dilution method. The format is functional.
The next data set has as its system Blastomyces dermatitidis. Put plainly: Antifungal activity against Blastomyces dermatitidis IFO8144 incubated for 40 hrs by serial agar dilution method. It counts as functional.
For data set [14], the system named is Trichophyton mentagrophytes. Kind of data set: Antifungal activity against Trichophyton mentagrophytes N0.4329 incubated for 40 hrs by serial agar dilution method. The format is functional.
The subject of data set [15] is Candida albicans. Kind of data set: Antifungal activity against Candida albicans A9540 infected in iv dosed ICR mouse assessed as protection against fungus-induced lethal infection dosed once immediately following fungal challenge and measured on day 20 post infection. It counts as functional. To be noted: 480 h, time 20 day, read-out: PD50.
Data set [16] has as its system Cryptococcus neoformans. Kind of data set: Antifungal activity against Cryptococcus neoformans IAM4514 incubated for 40 hrs by serial agar dilution method. The format is functional.
Data set [17] relates to Candida albicans. Put plainly: Antifungal activity against Candida albicans IAM 888 incubated for 40 hrs by serial agar dilution method. The format is functional.
Data set [18] has as its system Aspergillus flavus. Put plainly: Antifungal activity against Aspergillus flavus FA21436 NRRL 484 incubated for 40 hrs by serial agar dilution method. The format is functional.
The test system of a further data set is Sporothrix schenckii. Kind of data set: Antifungal activity against Sporothrix schenckii IFO8158 incubated for 40 hrs by serial agar dilution method. The format is functional.
In the next data set the test system is Fusarium verticillioides. Kind of data set: Antifungal activity against Fusarium monoliforme A2284 incubated for 40 hrs by serial agar dilution method. It counts as functional.
The subject of another data set is Scedosporium boydii. Kind of data set: Antifungal activity against Petriellidium boydii IFO8078 incubated for 40 hrs by serial agar dilution method. It counts as functional.
The subject of data set [19] is Aspergillus fumigatus. Put plainly: Antifungal activity against Aspergillus fumigatus IAM2530 incubated for 40 hrs by serial agar dilution method. The format is functional.
A short description of data set [20]: Inhibition of Saccharomyces cerevisiae CGMCC 2.145 CHS using UDP-GlcNAc as substrate incubated for 60 min by WGA-HRP tracer based method.
In data set [21] the test system is Candida albicans. Put plainly: Antifungal activity against Candida albicans incubated for 24 hrs by serial 2-fold dilution method. It counts as functional.
The subject of another data set is Candida tropicalis. Kind of data set: Antifungal activity against Candida tropicalis incubated for 24 hrs by serial 2-fold dilution method. The format is functional.
The subject of a further data set is Nakaseomyces glabratus. Kind of data set: Antifungal activity against Candida glabrata incubated for 24 hrs by serial 2-fold dilution method. The format is functional.
The subject of data set [22] is Aspergillus fumigatus. Kind of data set: Antifungal activity against Aspergillus fumigatus CF1003 incubated for 1 day by NCCLS M27-A2 microdilution method. The format is functional. To be noted: CF1003, 24 h.
Data set [23] relates to Aspergillus fumigatus. Put plainly: Antifungal activity against Aspergillus fumigatus CF924390 incubated for 1 day by NCCLS M27-A2 microdilution method. It counts as functional. The following applies: CF924390, 24 h.
Data set [24] has as its system Aspergillus fumigatus. Put plainly: Antifungal activity against Aspergillus fumigatus CF1083 incubated for 1 day by NCCLS M27-A2 microdilution method. The following applies: CF1083, 24 h. The format is functional.
For data set [25], the system named is Candida albicans. Put plainly: Antifungal activity against Candida albicans ATCC 48130 incubated for 1 day by NCCLS M27-A2 microdilution method. The format is functional. The following applies: ATCC 48130, 24 h.
The subject of data set [26] is Candida albicans. Put plainly: Antifungal activity against Candida albicans IFO0005 incubated for 3 day by NCCLS M27-A2 microdilution method. To be noted: IFO0005, 72 h. The format is functional.
Data set [27] has as its system Candida albicans. Kind of data set: Antifungal activity against Candida albicans CY3003 incubated for 1 day by NCCLS M27-A2 microdilution method. The format is functional. To be noted: CY3003, 24 h.
In data set [28] the test system is Candida albicans. Kind of data set: Antifungal activity against Candida albicans CY1123 incubated for 1 day by NCCLS M27-A2 microdilution method. The format is functional. To be noted: CY1123, 24 h.
The test system of data set [29] is Candida albicans. Put plainly: Antifungal activity against Candida albicans ATCC2001 incubated for 2 day by NCCLS M27-A2 microdilution method. The format is functional. To be noted: ATCC2001, 48 h.
Data set [30] concerns Candida albicans. Kind of data set: Antifungal activity against Candida albicans CY1124 incubated for 1 day by NCCLS M27-A2 microdilution method. The format is functional. To be noted: CY1124, 24 h.
Data set [31] can be described thus: Inhibition of Candida albicans IFO1060 1,3-beta-D-glucan synthase using UDP-[6-3H]-glucose as substrate incubated for 30 mins by radioactivity.
Data set [32] deals with Candida albicans. Kind of data set: Antifungal activity against Candida albicans CMCC 76615 incubated for 24 hrs. The format is functional.
Data set [33] concerns Aspergillus flavus. Put plainly: Antifungal activity against Aspergillus flavus ATCC 16870 incubated for 24 hrs. It counts as functional.
Data set [34] concerns Aspergillus fumigatus. Put plainly: Antifungal activity against Aspergillus fumigatus GIMCC 3.19 incubated for 24 hrs. It counts as functional.
Data set [35] relates to Cryptococcus neoformans. Put plainly: Antifungal activity against Cryptococcus neoformans ATCC 32719 incubated for 24 hrs. The format is functional.

Sequence of Chitin synthase 2 (P30572 whole entry): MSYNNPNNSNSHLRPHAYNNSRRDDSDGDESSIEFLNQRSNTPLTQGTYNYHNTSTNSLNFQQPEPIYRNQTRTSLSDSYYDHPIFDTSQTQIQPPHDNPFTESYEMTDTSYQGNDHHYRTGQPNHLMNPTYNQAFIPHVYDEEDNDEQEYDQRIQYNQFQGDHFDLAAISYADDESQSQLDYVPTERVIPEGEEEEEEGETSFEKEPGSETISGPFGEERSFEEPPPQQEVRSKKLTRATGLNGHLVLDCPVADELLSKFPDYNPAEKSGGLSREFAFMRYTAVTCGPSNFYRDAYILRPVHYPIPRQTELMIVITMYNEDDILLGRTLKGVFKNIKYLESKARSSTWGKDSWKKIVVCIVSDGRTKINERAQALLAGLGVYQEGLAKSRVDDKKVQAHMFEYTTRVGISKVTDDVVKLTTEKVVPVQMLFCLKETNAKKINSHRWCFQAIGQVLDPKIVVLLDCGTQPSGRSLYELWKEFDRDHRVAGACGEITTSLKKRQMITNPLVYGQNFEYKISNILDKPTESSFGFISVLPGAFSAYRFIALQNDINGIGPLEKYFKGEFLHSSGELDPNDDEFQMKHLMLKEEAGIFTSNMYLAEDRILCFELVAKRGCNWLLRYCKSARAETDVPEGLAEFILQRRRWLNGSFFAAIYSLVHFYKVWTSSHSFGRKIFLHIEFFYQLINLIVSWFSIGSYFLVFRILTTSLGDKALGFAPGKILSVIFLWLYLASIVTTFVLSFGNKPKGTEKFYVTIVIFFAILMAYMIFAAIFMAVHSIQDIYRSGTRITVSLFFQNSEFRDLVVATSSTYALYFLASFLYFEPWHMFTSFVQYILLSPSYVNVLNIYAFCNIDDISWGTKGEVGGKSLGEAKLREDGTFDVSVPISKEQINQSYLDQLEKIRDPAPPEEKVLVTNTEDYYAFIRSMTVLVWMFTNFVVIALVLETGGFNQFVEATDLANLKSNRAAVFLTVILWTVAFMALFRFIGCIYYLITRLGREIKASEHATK

Regarding `COc1ccc2c(Cc3ccc(C(C)(C)C)cc3)c3[n+](cc2c1OC)CCc1cc2c(cc1-3)OCO2`, the MIC against Candida albicans [1] was found to be 1.56 µg/mL; in data set [2] it was 6.25 µg/mL; in the data set on Pichia kudriavzevii, 1.56 µg/mL; against Candida albicans [3], 1.56 µg/mL; in the data set on Candida albicans [4], 1.56 µg/mL; against Candida albicans [5] it was 1.56 µg/mL. Further, the IC50 on Chitin synthase 2 and against Chitin synthase 1 was 22 µM throughout.

The compound `CCC[C@H](N)C(=O)N[C@@H](CNC(=O)/C=C/C(=O)OC)C(=O)O` displayed a median lethal dose (LD50) in [6] of over 300 mg/kg. The compound also returned an MIC in the data set with Candida albicans [7] of 0.4 µg/mL (≈ 1.27 µM).

Take `COC(=O)/C=C/C(=O)NC[C@H](N)C(=O)O`: the IC50 in data set [8] is 4.03 µg/mL (≈ 18.6 µM). The same compound gave a Ki in data set [9] of 0.1 µM. In the data set on Candida albicans [7], this compound registered an MIC of over 200 µg/mL.

In the case of `CN[C@@H]1[C@H](O[C@@H]2OC[C@@H](O)[C@H](O)[C@H]2O)[C@@H](O)[C@H](O[C@H]2c3cc(C)c(C(=O)N[C@H](CO)C(=O)O)c(O)c3-c3c(cc4c(c3O)C(=O)c3cc(OC)cc(O)c3C4=O)[C@@H]2O)O[C@@H]1C`, the minimum inhibitory concentration (MIC) (in data set [10]; with Candida albicans [11]; with Aspergillus fumigatus [12]; in the data set with Cryptococcus neoformans [13]; in the data set on Blastomyces dermatitidis; in data set [14]) was 0.8 µg/mL (≈ 0.934 µM) throughout. In addition, the MIC in the data set on Cryptococcus neoformans [16], in the data set on Candida albicans [17], in the data set with Aspergillus flavus [18], against Sporothrix schenckii, in the data set with Fusarium verticillioides and with Scedosporium boydii was 0.8 µg/mL (≈ 0.934 µM) in each case. The same compound registered an MIC with Aspergillus fumigatus [19] of 0.8 µg/mL (≈ 0.934 µM). For the same compound, in the data set with Candida albicans [15], the ED50 is 7.4 mg/kg.

In data set [20], `COc1ccc(N2CCN(C(=O)[C@H](O)[C@@H](O)C(=O)Nc3c(O)c4cc(O)ccc4oc3=O)CC2)cc1` showed a half-inhibitory concentration (IC50) of 100 µM.

Regarding `COC(=O)/C=C/C(=O)NC[C@H](NC(=O)CN(CCOC(C)=O)CCOC(C)=O)C(=O)OCOC(=O)Cc1ccccc1.Cl`, the MIC against Candida albicans [21] came to 31.3 µg/mL; with Candida tropicalis it was 31.3 µg/mL; in the data set with Nakaseomyces glabratus, 125 µg/mL.

Turning to `O=C(Nc1c(F)cccc1F)OCCCN1CCN(c2nc3ccccc3s2)CC1`, the MIC in the data set with Aspergillus fumigatus [22] is 0.15 µg/mL (≈ 0.347 µM); with Aspergillus fumigatus [23] it was 0.15 µg/mL (≈ 0.347 µM); in the data set with Aspergillus fumigatus [24] it was 0.15 µg/mL (≈ 0.347 µM); in the data set on Candida albicans [25], 0.26 µg/mL (≈ 0.601 µM); against Candida albicans [26], 0.17 µg/mL (≈ 0.393 µM); against Candida albicans [27], 0.26 µg/mL (≈ 0.601 µM). The MIC is 0.26 µg/mL (≈ 0.601 µM) against Candida albicans [28], 0.17 µg/mL (≈ 0.393 µM) in the data set on Candida albicans [29] and 0.26 µg/mL (≈ 0.601 µM) in the data set with Candida albicans [30]. In data set [31], the IC50 was found to be 0.16 µM.

For the compound `O=C(Nc1c(O)c2ccccc2oc1=O)[C@H](O)[C@@H](O)C(=O)N1CCN(c2ccc(Cl)cc2)CC1`, the MIC in the data set with Candida albicans [32], against Aspergillus flavus [33], in the data set on Aspergillus fumigatus [34] and in the data set with Cryptococcus neoformans [35] was 4 µg/mL (≈ 8.2 µM) throughout.
